Measured values from patent publication US9074163B2, “Targeted performance of hypohalite systems thereof” (The Clorox Company, priority 2012, dated 2015).

Assay: percentage initial hypochlorite remaining as a function of time after mixing oxidant with reductant
Assay type: physicochemical
Details: any pH below 12
From the text: The amount of available halogen oxidant in the composition may be determined by placing samples of the composition into about 50 milliliters of distilled water, followed by addition of about 10 milliliters of a 10 wt % solution of potassium iodide and addition of about 10 milliliters of a 10 volume % solution of sulfuric acid, the resulting mixture being well stirred. The resulting yellow to brown solution, whose color is the result of oxidation of free iodine ion (I′) to molecular iodine (I2), is then volumetrically titrated to an essentially colorless endpoint by addition of standardized 0.1 Molar sodium thiosulfate (Na2S2O3) titrant. […] Stability results are then expressed by repeated assays over time using identically prepared samples resulting from the same composition, normalized to 100 percent representative of the starting available chlorine measured initially.
Alternatively, at lower concentrations of hypochlorite, generally below about 2,000 ppm or 0.2 wt %, spectroscopic measurement of the absorption of aqueous solutions may be used to monitor the concentration, and resulting changes, of the hypochlorous acid species in solution. […] By use of controls, the relative level of hypochlorite can then be monitored and calculated by measuring absorbance of solutions by means of a suitable instrument, such as a spectrophotometer. […]

## O=C(O)CN(CCN(CC(=O)O)CC(=O)O)CC(=O)O [EDTA, ethylene diamine tetra-acetic acid]
  reaction of reductant with hypochlorite (quenching rate): reacts almost instantly
